Assays:
A. niger [1] = experiment: culture of the fungi A. niger exposed to disk moistened with formulation (glycerol/SDS base); assay type: cell-based, Aspergillus niger; conditions: under more controlled conditions; 0.5 and 1% formulations
Procedure: Formulations were further tested against a culture of the fungi A. niger. The fungi was exposed to 1% PCO/1% POH, 1% PCO, and 1% POH formulations. All formulations were prepared in a glycerol/SDS base in water.

A. niger [2] = experiment: agar diffusion-disk technique, halo formation (fungal strains); assay type: cell-based, Aspergillus niger; conditions: for re-growth around the formulation: A. niger, 96 hours after inhibition; for activity against A. niger: formulation at 0.5%, after 7 days
Procedure: This technique is explained in R. K. Dart, Microbiology for the Analytic Chemist, The Royal Society of Chemists, 1996, which is incorporated herein by reference. […] Anti-bacterial activity was detected by showing a distinguished halo around the disk previously wetted with the formulation. Halo formation was measured with a caliper and biological activity was considered according to size. Details of specific applications and formulations are set forth below. […] SDS indicates Sodium Dodecyl Sulfate. […] Details of specific applications and formulations are set forth below.

bacteria, yeast or fungi = experiment: general statements on activity against bacteria, yeast or fungi; assay type: cell-based; conditions: enhancer alone

C=C(C)C1CC=C(C=O)CC1 (stereo not drawn) [PCO, perillyl aldehyde]
inhibition of growth of A. niger (A. niger [1]): did inhibit growth
re-growth around the formulation (A. niger [2]): no growth
activity against A. niger (A. niger [2]): very active

C=C(C)[C@@H]1CC=C(CO)CC1 [POH, perillyl alcohol, reference compound]
inhibition of growth of A. niger (A. niger [1]): did not perform as aggressively
re-growth around the formulation (A. niger [2]): re-growth
activity against A. niger (A. niger [2]): considerable growth

CCCCCCCCCCCCOS(=O)(=O)[O-].[Na+] [SDS, Sodium Dodecyl Sulfate]
activity against bacterial cells (bacteria, yeast or fungi): do not provide activity

CC(O)CO (stereo not drawn) [propylene glycol]
activity against bacterial cells (bacteria, yeast or fungi): do not provide activity
effect against bacteria, yeast or fungi (bacteria, yeast or fungi): no effect
